We go through 24 compounds from patent US20080051387A1, “TETRAHYDROPYRIDO[3,4-D]PYRIMIDINES AND RELATED ANALOGUES” (priority 2006, published 2008).

As a reminder, the inhibition is the share of the control response that was lost under treatment.

The target in this test is T1, chimeric human H3 receptor (Homo sapiens, UniProt Q9Y5N1).
T1 construct: rat Galpha-i2 (Gnai2, rat); made in house; host or cells: Sf9 insect cells (baculovirus); P2 membranes
The experiment in a line: Chimeric human H3 receptor screening GTP binding assay (inhibition of histamine-stimulated GTP-gamma35S binding, Example 8). The conditions noted are these: read-out: percent inhibition of agonist-induced GTP-gammaS binding to H3. The format is biochemical. The method in brief:
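Sf9 membranes co-expressing chimeric human H3 receptor and heterotrimeric G-protein (35 μg protein) incubated 60 min at room temperature with 4 μM compound, 1 μM histamine and 125 pM GTP-gamma35S in pH 7.4 buffer with 10 μM GDP. Filter-bound radioactivity, nonspecific (10 μM GTP-gammaS) subtracted, reported as % inhibition of histamine signal.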
For orientation: GTPγS resists hydrolysis and so accumulates on activated G proteins.

The mark [1] stands for this setting: 1 h, assay of Example 8, symbol "!" in column headed Ki.
[2] abbreviates: symbol ! in Ki, test compound 4 μM, 1 μM histamine.

Where two headings read alike, the source gives them in different places. Some results are limits rather than exact numbers.

T1 sequence (Q9Y5N1 with tags, fused parts or gaps): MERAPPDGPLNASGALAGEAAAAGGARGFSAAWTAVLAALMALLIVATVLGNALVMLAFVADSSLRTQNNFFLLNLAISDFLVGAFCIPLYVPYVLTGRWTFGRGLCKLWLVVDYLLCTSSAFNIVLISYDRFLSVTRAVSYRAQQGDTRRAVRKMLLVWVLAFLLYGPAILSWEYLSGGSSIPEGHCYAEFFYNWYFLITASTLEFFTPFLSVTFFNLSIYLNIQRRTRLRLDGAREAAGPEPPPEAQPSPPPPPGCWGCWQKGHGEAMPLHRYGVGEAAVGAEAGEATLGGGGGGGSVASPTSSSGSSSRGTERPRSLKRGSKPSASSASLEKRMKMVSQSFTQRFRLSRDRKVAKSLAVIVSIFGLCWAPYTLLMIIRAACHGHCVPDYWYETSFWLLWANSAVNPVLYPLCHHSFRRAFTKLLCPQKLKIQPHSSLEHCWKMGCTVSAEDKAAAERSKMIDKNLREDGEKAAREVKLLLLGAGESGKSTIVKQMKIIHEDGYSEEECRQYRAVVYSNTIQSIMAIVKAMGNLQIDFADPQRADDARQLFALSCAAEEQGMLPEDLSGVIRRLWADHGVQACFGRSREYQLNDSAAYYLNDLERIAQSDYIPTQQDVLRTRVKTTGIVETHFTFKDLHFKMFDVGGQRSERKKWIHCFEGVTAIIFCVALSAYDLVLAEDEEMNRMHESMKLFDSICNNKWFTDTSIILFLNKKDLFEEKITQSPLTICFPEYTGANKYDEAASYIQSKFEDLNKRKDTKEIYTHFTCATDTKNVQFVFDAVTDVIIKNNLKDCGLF

Consider `O=C(/C=C/c1ccccc1Br)N1CCc2cnc(N3CCN(C4CCC4)CC3)nc2CC1` [Compound 582, 7-[(2E)-3-(2-bromophenyl)prop-2-enoyl]-2-(4-cyclobutylpiperazin-1-yl)-6,7,8,9-tetrahydro-5H-pyrimido[4,5-d]azepine], for which the inhibition at 4 µM under setting [1] is no less than 90%.
For the compound `O=C(/C=C/c1c(Cl)cccc1Cl)N1CCc2cnc(N3CCN(C4CCC4)CC3)nc2CC1` [Compound 583, 2-(4-cyclobutylpiperazin-1-yl)-7-[(2E)-3-(2,6-dichlorophenyl)prop-2-enoyl]-6,7,8,9-tetrahydro-5H-pyrimido[4,5-d]azepine], the inhibition at 4 µM under setting [1] was no less than 90%.
`O=C(/C=C/c1ccc(F)cc1Cl)N1CCc2cnc(N3CCN(C4CCC4)CC3)nc2CC1` [Compound 584, 7-[(2E)-3-(2-chloro-4-fluorophenyl)prop-2-enoyl]-2-(4-cyclobutylpiperazin-1-yl)-6,7,8,9-tetrahydro-5H-pyrimido[4,5-d]azepine]: the inhibition at 4 µM under setting [1] was no less than 90%.
The same measure, in the same setting: the result for `O=C(/C=C/c1c(F)cccc1Cl)N1CCc2cnc(N3CCN(C4CCC4)CC3)nc2CC1` [Compound 585, 7-[(2E)-3-(2-chloro-6-fluorophenyl)prop-2-enoyl]-2-(4-cyclobutylpiperazin-1-yl)-6,7,8,9-tetrahydro-5H-pyrimido[4,5-d]azepine] reads no less than 90%; that for `COc1ccc(/C=C/C(=O)N2CCc3cnc(N4CCN(C5CCC5)CC4)nc3CC2)c(Cl)c1OC` [Compound 586, 7-[(2E)-3-(2-chloro-3,4-dimethoxyphenyl)prop-2-enoyl]-2-(4-cyclobutylpiperazin-1-yl)-6,7,8,9-tetrahydro-5H-pyrimido[4,5-d]azepine], no less than 90%; that for `CCOc1ccc(Br)cc1/C=C/C(=O)N1CCc2cnc(N3CCN(C4CCC4)CC3)nc2CC1` [Compound 587, 7-[(2E)-3-(5-bromo-2-ethoxyphenyl)prop-2-enoyl]-2-(4-cyclobutylpiperazin-1-yl)-6,7,8,9-tetrahydro-5H-pyrimido[4,5-d]azepine], no less than 90%.
For `COc1cc(Br)c(/C=C/C(=O)N2CCc3cnc(N4CCN(C5CCC5)CC4)nc3CC2)cc1OC` [Compound 588, 7-[(2E)-3-(2-bromo-4,5-dimethoxyphenyl)prop-2-enoyl]-2-(4-cyclobutylpiperazin-1-yl)-6,7,8,9-tetrahydro-5H-pyrimido[4,5-d]azepine], under setting [1], the inhibition at 4 µM is no less than 90%.
For `O=C(/C=C/c1cc2c(cc1Br)OCO2)N1CCc2cnc(N3CCN(C4CCC4)CC3)nc2CC1` [Compound 589, 7-[(2E)-3-(6-bromo-1,3-benzodioxol-5-yl)prop-2-enoyl]-2-(4-cyclobutylpiperazin-1-yl)-6,7,8,9-tetrahydro-5H-pyrimido[4,5-d]azepine], under setting [1], the inhibition at 4 µM is no less than 90%.
On to `Fc1ccccc1CN1CCc2nc(N3CCN(C4CCC4)CC3)ncc2C1` [Compound 611, 2-(4-cyclobutylpiperazin-1-yl)-6-(2-fluorobenzyl)-5,6,7,8-tetrahydropyrido[4,3-d]pyrimidine], for which, under setting [2], the inhibition at 4 µM is no less than 90%.
As to `Fc1cccc(CN2CCc3nc(N4CCN(C5CCC5)CC4)ncc3C2)c1` [Compound 612, 2-(4-cyclobutylpiperazin-1-yl)-6-(3-fluorobenzyl)-5,6,7,8-tetrahydropyrido[4,3-d]pyrimidine], the inhibition at 4 µM under setting [2] was no less than 90%.
Turning to `Fc1ccc(CN2CCc3nc(N4CCN(C5CCC5)CC4)ncc3C2)cc1` [Compound 613, 2-(4-cyclobutylpiperazin-1-yl)-6-(4-fluorobenzyl)-5,6,7,8-tetrahydropyrido[4,3-d]pyrimidine], the inhibition at 4 µM under setting [2] was no less than 90%.
Consider `Cc1cccc(CN2CCc3nc(N4CCN(C5CCC5)CC4)ncc3C2)c1` [Compound 614, 2-(4-cyclobutylpiperazin-1-yl)-6-(3-methylbenzyl)-5,6,7,8-tetrahydropyrido[4,3-d]pyrimidine], for which the inhibition at 4 µM under setting [2] is no less than 90%.
On to `Cc1ccc(CN2CCc3nc(N4CCN(C5CCC5)CC4)ncc3C2)cc1` [Compound 615, 2-(4-cyclobutylpiperazin-1-yl)-6-(4-methylbenzyl)-5,6,7,8-tetrahydropyrido[4,3-d]pyrimidine], for which the inhibition at 4 µM under setting [2] is no less than 90%.
`Cn1ccnc1CN1CCc2nc(N3CCN(C4CCC4)CC3)ncc2C1` [Compound 616, 2-(4-cyclobutylpiperazin-1-yl)-6-[(1-methyl-1H-imidazol-2-yl)methyl]-5,6,7,8-tetrahydropyrido[4,3-d]pyrimidine]: the inhibition at 4 µM under setting [2] was no less than 90%.
For `c1ccc2c(CN3CCc4nc(N5CCN(C6CCC6)CC5)ncc4C3)ccnc2c1` [Compound 617, 2-(4-cyclobutylpiperazin-1-yl)-6-(quinolin-4-ylmethyl)-5,6,7,8-tetrahydropyrido[4,3-d]pyrimidine], the inhibition at 4 µM under setting [2] was no less than 90%.
Take `c1ccc2ncc(CN3CCc4nc(N5CCN(C6CCC6)CC5)ncc4C3)cc2c1` [Compound 618, 2-(4-cyclobutylpiperazin-1-yl)-6-(quinolin-3-ylmethyl)-5,6,7,8-tetrahydropyrido[4,3-d]pyrimidine]: the inhibition at 4 µM under setting [2] is no less than 90%.
Take `Cc1cccc(CN2CCc3nc(N4CCN(C5CCC5)CC4)ncc3C2)n1` [Compound 619, 2-(4-cyclobutylpiperazin-1-yl)-6-[(6-methylpyridin-2-yl)methyl]-5,6,7,8-tetrahydropyrido[4,3-d]pyrimidine]: the inhibition at 4 µM under setting [2] was no less than 90%.
With `c1cncc(CN2CCc3nc(N4CCN(C5CCC5)CC4)ncc3C2)c1` [Compound 620, 2-(4-cyclobutylpiperazin-1-yl)-6-(pyridin-3-ylmethyl)-5,6,7,8-tetrahydropyrido[4,3-d]pyrimidine], the inhibition at 4 µM under setting [2] is no less than 90%.
On to `c1cc(N2CCOCC2)ncc1CN1CCc2nc(N3CCN(C4CCC4)CC3)ncc2C1` [Compound 621, 2-(4-cyclobutylpiperazin-1-yl)-6-[(6-morpholin-4-ylpyridin-3-yl)methyl]-5,6,7,8-tetrahydropyrido[4,3-d]pyrimidine], for which, under setting [2], the inhibition at 4 µM is no less than 90%.
Still for that read-out and setting: the result for `Cc1cc(CN2CCc3nc(N4CCN(C5CCC5)CC4)ncc3C2)n(C)n1` [Compound 622, 2-(4-cyclobutylpiperazin-1-yl)-6-[(1,3-dimethyl-1H-pyrazol-5-yl)methyl]-5,6,7,8-tetrahydropyrido[4,3-d]pyrimidine] reads no less than 90%.
Regarding `COc1ccccc1CN1CCc2nc(N3CCN(C4CCC4)CC3)ncc2C1` [Compound 623, 2-(4-cyclobutylpiperazin-1-yl)-6-(2-methoxybenzyl)-5,6,7,8-tetrahydropyrido[4,3-d]pyrimidine], the inhibition at 4 µM under setting [2] is no less than 90%.
Take `COc1ccc(CN2CCc3nc(N4CCN(C5CCC5)CC4)ncc3C2)c(OC)c1` [Compound 624, 2-(4-cyclobutylpiperazin-1-yl)-6-(2,4-dimethoxybenzyl)-5,6,7,8-tetrahydropyrido[4,3-d]pyrimidine]: the inhibition at 4 µM under setting [2] was no less than 90%.
Still for that read-out and setting: the value for `CC(C)c1ccc(CN2CCc3nc(N4CCN(C5CCC5)CC4)ncc3C2)cc1` [Compound 625, 2-(4-cyclobutylpiperazin-1-yl)-6-(4-isopropylbenzyl)-5,6,7,8-tetrahydropyrido[4,3-d]pyrimidine] was no less than 90%; that for `CC(C)CCN1CCc2nc(N3CCN(C4CCC4)CC3)ncc2C1` [Compound 626, 2-(4-cyclobutylpiperazin-1-yl)-6-(3-methylbutyl)-5,6,7,8-tetrahydropyrido[4,3-d]pyrimidine] was no less than 90%.
